Values quoted from earlier work in patent publication US12124166B2, “Negative resist formulation for producing undercut pattern profiles” (Merck Patent GmbH, priority 2017, dated 2024).

Conditions: for pKa (Quencher's pKa values): Table 9; for pKa in water: stated in the Materials descriptions of commercial quenchers

Structure (SMILES)	pKa (Quencher's pKa values)	pKa in water
CCc1ncc[nH]1 [2EI, 2-Ethylimidazole]	8.22	~8.22
CCCCCCCCCCCCCCCCCC1=NCCN1CCO [Addi-MC, 2-(2-heptadecyl-4,5-dihydro-1H-imidazol-1-yl)ethan-1-ol]		~10.08
CCN(C(C)C)C(C)C [N,N diisopropylethylamine]	10.98	

Now from value to compound:

pKa (Quencher's pKa values)	pKa in water	Structure (SMILES)
4.25	~4.25	CC(C)c1cccc(C(C)C)c1N [DIPA, 2,6-diisopropylaniline]
−3.04	~−3.04	c1ccc(N(c2ccccc2)c2ccccc2)cc1 [DPA, triphenylamine]
6.78	~6.78	OCCn1ccnc1 [IA, 1-(2-hydroxyethylimidazole)]
6.92	~6.92	COCCOCCN(CCOCCOC)CCOCCOC [MNNE, 2-(2-methoxyethoxy)-N,N-bis[2-(2-methoxyethoxy)ethyl]-Ethanamine]
9.91		CCCN(C)CCC [N-Methyldipropylamine]
